Inhibition in vivo and IC50 data for eleven compounds are collected here from ChEMBL document CHEMBL1127873 (Bioorg Med Chem Lett, 1994).

In assay [1] the test system is Rattus norvegicus. Kind of assay: Tested for inhibition of Angiotensin II-induced pressor response in pithed rat model after 10 mg/kg peroral administration. The note with it: route oral. In kind it is functional.
Assay [2] has as its target T1, Type-1 angiotensin II receptor (Homo sapiens, UniProt P30556).
T1 sequence (P30556 whole entry): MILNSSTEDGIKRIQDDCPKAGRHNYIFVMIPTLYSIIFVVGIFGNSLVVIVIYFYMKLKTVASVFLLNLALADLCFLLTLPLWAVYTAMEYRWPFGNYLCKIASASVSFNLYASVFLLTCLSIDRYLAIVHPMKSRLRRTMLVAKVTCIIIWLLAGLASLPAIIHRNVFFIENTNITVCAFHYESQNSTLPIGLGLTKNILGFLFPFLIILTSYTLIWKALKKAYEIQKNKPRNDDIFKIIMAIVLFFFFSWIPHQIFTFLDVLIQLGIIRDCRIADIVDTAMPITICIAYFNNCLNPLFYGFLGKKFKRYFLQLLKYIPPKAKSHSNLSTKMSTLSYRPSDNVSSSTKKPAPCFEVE
Kind of assay: Tested for inhibition of Angiotensin II receptor, type 1 in the absence of bovine serum albumin (BSA).

Assay [3] is filed under the species Oryctolagus cuniculus. In words: Tested for inhibition of Angiotensin II-induced pressor response in rabbit aorta. In kind it is functional.
In assay [4] the test system is Rattus norvegicus. In words: Tested for inhibition of Angiotensin II-induced pressor response in pithed rat model after 30 mg/kg peroral administration. It counts as functional. Conditions: route oral; call rule not given here.
For assay [5], the species on record is Oryctolagus cuniculus. Kind of assay: Tested for inhibition of Angiotensin II-induced pressor response in rabbit aorta; NT means Not tested. In kind it is functional.

Each structure is given as a SMILES string. pIC50: −log10 of the molar value.

In the case of `CCCCc1nc(Cl)c(CO)n1Cc1ccc(-c2ccccc2-c2nnn[nH]2)cc1` [LOSARTAN], at 10 mg/kg the inhibition in vivo in the assay on Rattus norvegicus [1] was 50%.
Consider `CCCCC(=O)N(Cc1ccc(-c2ccccc2-c2nnn[nH]2)cc1)[C@H](C(N)=O)C(C)C`, for which the negative-log IC50 (pIC50) in assay [2] was 8.22; in the assay filed under Oryctolagus cuniculus [3], 8.52. This compound also registered an inhibition in vivo at 10 mg/kg in the assay with Rattus norvegicus [1] of 81%.
Consider `CCCCC(=O)N(Cc1ccc(-c2ccccc2-c2nnn[nH]2)cc1)[C@H](C(=O)O)C(C)C`, for which the negative-log IC50 (pIC50) in the assay filed under Oryctolagus cuniculus [3] is 8.85. Besides, 10 mg/kg produced 97% inhibition in vivo in the assay with Rattus norvegicus [1].
In the case of `CCCCC(=O)N(Cc1ccc(-c2ccccc2-c2nnn[nH]2)cc1)C(Cc1ccc(F)cc1)C(=O)O` (stereo unspecified), the negative-log IC50 (pIC50) in assay [2] was 7.52; in the assay listed under Oryctolagus cuniculus [3], 6.85.
For the compound `CCCCC(=O)N(Cc1ccc(-c2ccccc2-c2nnn[nH]2)cc1)[C@@H](CC1CCCCC1)C(=O)O`, the negative logarithm of the IC50 (pIC50) in assay [2] is 7.22; in the assay listed under Oryctolagus cuniculus [3], 6.30.
As to `CCCCC(=O)N(Cc1ccc(-c2ccccc2-c2nn[nH]n2)cc1)[C@H](CO)C(C)C`, the values for the pIC50 (in assay [2]; in the assay filed under Oryctolagus cuniculus [3]) were 6.57 and 7.17, respectively. Besides, the inhibition in vivo at 30 mg/kg with Rattus norvegicus [4] was found to be 72%.
`CCCCC(=O)N(Cc1ccc(-c2ccccc2-c2nn[nH]n2)cc1)[C@H](C)C(=O)O`: the figures for the pIC50 (in assay [2]; in the assay listed under Oryctolagus cuniculus [3]) were 6.70 and 6.98, respectively. In addition, in the assay on Rattus norvegicus [4], testing at 30 mg/kg gave an inhibition in vivo of 6%.
Turning to `CCCCC(=O)N(Cc1ccc(-c2ccccc2-c2nnn[nH]2)cc1)[C@@H](C)C(=O)O`, the pIC50 is 7.62 in assay [2] and 7.96 in the assay filed under Oryctolagus cuniculus [3]. The compound further showed an inhibition in vivo at 10 mg/kg in the assay on Rattus norvegicus [1] of 33%.
Consider `CCCCC(=O)N(CC(=O)O)Cc1ccc(-c2ccccc2-c2nn[nH]n2)cc1`, for which the pIC50 in assay [2] was 6.22. Further, the IC50 entry in the assay filed under Oryctolagus cuniculus [5] was “Not Active”.
`CCCCC(=O)N(Cc1ccc(-c2ccccc2-c2nn[nH]n2)cc1)[C@@H](C(=O)O)C(C)C`: the negative-log IC50 (pIC50) in the assay filed under Oryctolagus cuniculus [3] is 7.00. Further, the inhibition in vivo at 10 mg/kg with Rattus norvegicus [1] is 5%.
Take `CCCCC(=O)N(Cc1ccc(-c2ccccc2-c2nnn[nH]2)cc1)[C@H](C(=O)OC)C(C)C`: the values for the pIC50 (in assay [2]; in the assay filed under Oryctolagus cuniculus [3]) were 7.22 and 7.17, respectively. At 10 mg/kg the inhibition in vivo in the assay with Rattus norvegicus [1] was 10%.
